Data from a compilation of properties of binary mixtures (doi:10.1016/j.molliq.2014.09.055).

Assay: xn = mol fraction of the nth substance listed
Conditions: 101 kPa

CCC(=O)O + CCOS(=O)(=O)[O-].CC[n+]1ccn(C)c1
speed of sound (293.15 K, x1 = 0.1678): 1659.4 m/s
speed of sound (293.15 K, x1 = 0.2655): 1635.9 m/s
speed of sound (293.15 K, x1 = 0.3539): 1611.6 m/s
speed of sound (293.15 K, x1 = 0.4224): 1590.3 m/s
speed of sound (293.15 K, x1 = 0.5516): 1542.7 m/s
speed of sound (293.15 K, x1 = 0.6556): 1494.8 m/s
speed of sound (293.15 K, x1 = 0.7707): 1421.7 m/s
speed of sound (293.15 K, x1 = 0.8774): 1320.2 m/s
speed of sound (293.15 K, x1 = 0.9405): 1240.4 m/s
speed of sound (293.15 K, x1 = 1): 1164.7 m/s
speed of sound (298.15 K, x1 = 0.0818): 1665.8 m/s
speed of sound (298.15 K, x1 = 0.1678): 1647 m/s
speed of sound (298.15 K, x1 = 0.3539): 1598.8 m/s
speed of sound (298.15 K, x1 = 0.4224): 1577.4 m/s
speed of sound (298.15 K, x1 = 0.5516): 1529.4 m/s
speed of sound (298.15 K, x1 = 0.6556): 1481 m/s
speed of sound (298.15 K, x1 = 0.7707): 1407.2 m/s
speed of sound (298.15 K, x1 = 0.8774): 1304.5 m/s
speed of sound (298.15 K, x1 = 0.9405): 1223.4 m/s
speed of sound (298.15 K, x1 = 1): 1146 m/s
speed of sound (303.15 K, x1 = 0.0818): 1653.5 m/s
speed of sound (303.15 K, x1 = 0.1678): 1634.6 m/s
speed of sound (303.15 K, x1 = 0.2655): 1610.7 m/s
speed of sound (303.15 K, x1 = 0.3539): 1585.9 m/s
speed of sound (303.15 K, x1 = 0.4224): 1564.4 m/s
speed of sound (303.15 K, x1 = 0.5516): 1515.9 m/s
speed of sound (303.15 K, x1 = 0.6556): 1467 m/s
speed of sound (303.15 K, x1 = 0.7707): 1392.4 m/s
speed of sound (303.15 K, x1 = 0.8774): 1288.6 m/s
speed of sound (303.15 K, x1 = 0.9405): 1206.2 m/s
speed of sound (303.15 K, x1 = 1): 1127.1 m/s
speed of sound (308.15 K, x1 = 0.0818): 1641.2 m/s
speed of sound (308.15 K, x1 = 0.1678): 1622.2 m/s
speed of sound (308.15 K, x1 = 0.4224): 1551.4 m/s
speed of sound (308.15 K, x1 = 0.5516): 1502.5 m/s
speed of sound (308.15 K, x1 = 0.6556): 1453.1 m/s
speed of sound (308.15 K, x1 = 0.7707): 1377.8 m/s
speed of sound (308.15 K, x1 = 0.8774): 1272.8 m/s
speed of sound (308.15 K, x1 = 1): 1108.3 m/s
speed of sound (313.15 K, x1 = 0.0818): 1629.1 m/s
speed of sound (313.15 K, x1 = 0.1678): 1609.9 m/s
speed of sound (313.15 K, x1 = 0.2655): 1585.6 m/s
speed of sound (313.15 K, x1 = 0.3539): 1566 m/s
speed of sound (313.15 K, x1 = 0.4224): 1538.5 m/s
speed of sound (313.15 K, x1 = 0.5516): 1489.2 m/s
speed of sound (313.15 K, x1 = 0.6556): 1439.4 m/s
speed of sound (313.15 K, x1 = 0.7707): 1363.3 m/s
speed of sound (313.15 K, x1 = 0.9405): 1172.3 m/s
speed of sound (313.15 K, x1 = 1): 1089.6 m/s

CC(=O)O + CCOS(=O)(=O)[O-].CC[n+]1ccn(C)c1
speed of sound (293.15 K, x1 = 0.308): 1644.8 m/s
speed of sound (293.15 K, x1 = 0.4031): 1622.3 m/s
speed of sound (293.15 K, x1 = 0.4737): 1603.2 m/s
speed of sound (293.15 K, x1 = 0.5975): 1560.5 m/s
speed of sound (293.15 K, x1 = 0.701): 1510.8 m/s
speed of sound (293.15 K, x1 = 0.8973): 1339.1 m/s
speed of sound (293.15 K, x1 = 1): 1152.7 m/s
speed of sound (298.15 K, x1 = 0.1993): 1651.5 m/s
speed of sound (298.15 K, x1 = 0.308): 1632.2 m/s
speed of sound (298.15 K, x1 = 0.4737): 1590.2 m/s
speed of sound (298.15 K, x1 = 0.5975): 1547.1 m/s
speed of sound (298.15 K, x1 = 0.701): 1497 m/s
speed of sound (298.15 K, x1 = 0.8973): 1324 m/s
speed of sound (298.15 K, x1 = 0.9512): 1237.2 m/s
speed of sound (303.15 K, x1 = 0.0978): 1656.4 m/s
speed of sound (303.15 K, x1 = 0.1993): 1639 m/s
speed of sound (303.15 K, x1 = 0.308): 1619.5 m/s
speed of sound (303.15 K, x1 = 0.4031): 1596.6 m/s
speed of sound (303.15 K, x1 = 0.4737): 1577.1 m/s
speed of sound (303.15 K, x1 = 0.5975): 1533.6 m/s
speed of sound (303.15 K, x1 = 0.701): 1483.1 m/s
speed of sound (303.15 K, x1 = 0.9512): 1221 m/s
speed of sound (303.15 K, x1 = 1): 1118.4 m/s
speed of sound (308.15 K, x1 = 0.0978): 1644.2 m/s
speed of sound (308.15 K, x1 = 0.1993): 1626.6 m/s
speed of sound (308.15 K, x1 = 0.308): 1606.9 m/s
speed of sound (308.15 K, x1 = 0.4737): 1564 m/s
speed of sound (308.15 K, x1 = 0.5975): 1520.1 m/s
speed of sound (308.15 K, x1 = 0.701): 1469.2 m/s
speed of sound (308.15 K, x1 = 0.8057): 1394.1 m/s
speed of sound (308.15 K, x1 = 0.8973): 1293.3 m/s
speed of sound (308.15 K, x1 = 0.9512): 1204.9 m/s
speed of sound (308.15 K, x1 = 1): 1101.2 m/s
speed of sound (313.15 K, x1 = 0.1993): 1614.3 m/s
speed of sound (313.15 K, x1 = 0.308): 1594.4 m/s
speed of sound (313.15 K, x1 = 0.4737): 1551.1 m/s
speed of sound (313.15 K, x1 = 0.701): 1455.5 m/s
speed of sound (313.15 K, x1 = 0.8057): 1379.8 m/s
speed of sound (313.15 K, x1 = 0.8973): 1278 m/s
speed of sound (313.15 K, x1 = 0.9512): 1188.8 m/s
speed of sound (313.15 K, x1 = 1): 1084 m/s

CCOS(=O)(=O)[O-].CC[n+]1ccn(C)c1 + CC(=O)O
speed of sound (293.15 K, x2 = 0): 1693.1 m/s
speed of sound (298.15 K, x2 = 0): 1680.8 m/s
speed of sound (303.15 K, x2 = 0): 1668.5 m/s

CCOS(=O)(=O)[O-].CC[n+]1ccn(C)c1 + CCC(=O)O
speed of sound (293.15 K, x2 = 0): 1693.1 m/s
speed of sound (298.15 K, x2 = 0): 1680.8 m/s
